Counter-ions that a name gives are not always drawn. Like-named read-outs stand apart in the source and are kept apart here.

The target in experiment [1] is T1, SARS-CoV-2 PLpro (nsp3 1564–1878) (Severe acute respiratory syndrome coronavirus 2, UniProt P0DTD1). Briefly: biochemical. Also noted: FRET-quenched peptide (Pro3) cleavage by PLpro, 10 min pre-incubation, slope over 20 min, normalised to no-compound control. The following applies: low concentration screen, read-out: % of control remaining.
Experimental: The plates were organized with columns 3–22 containing the compounds; the remaining columns were used for reaction controls including substrate only and substrate with enzyme but no compound (Figure 3Aii). The PLpro enzyme was pre-incubated with the compounds for 10 min, and then the reaction was initiated by the addition of substrate. […] We incubated the inhibitors with PLpro before the enzymatic reaction so that the slow-binding inhibitors will not be missed out [21]. […] Fluorescence was read on a Spark multimode microplate reader (Tecan) with an excitation wavelength at 330 nm and emission wavelength at 420 nm. […] An amount of 5 µl of the enzyme was pre-incubated with compounds for 10 min before the addition of 15 µl substrate. Fluorescence was monitored at 2 min for 20 min with 3 min intervals giving a total of seven readings.
In experiment [2] the target is T1, SARS-CoV-2 PLpro (nsp3 1564–1878). Nature of the experiment: biochemical. Also noted: FRET-quenched peptide (Pro3) cleavage by PLpro, 10 min pre-incubation, slope over 20 min, normalised to no-compound control. The following applies: high concentration screen, read-out: % of control remaining.

Regarding `CCOc1cc(/C=C2/C(=O)N(c3ccccc3)N=C2C)cc(Cl)c1OCC(=O)OC` [SJ-172550], the remaining activity at 1.25 µM in experiment [1] (Well no.=6354) was determined as 91.1%. In addition, the remaining activity at 3.75 µM in experiment [2] (Well no.=6354) amounted to 90.9%.

Regarding `CN1CCc2cc(O)c(O)cc2C(c2ccccc2)C1` (stereo not shown) [SKF 75670 hydrobromide], the remaining activity at 1.25 µM in experiment [1] (Well no.=1360) worked out at 103%. The remaining activity at 3.75 µM in experiment [2] (Well no.=1360) turned out to be 105%.

With `CN1CCc2c(cc(O)c(O)c2Cl)C(c2cccc(Cl)c2)C1` (stereo not shown) [SKF 83565 hydrobromide], in experiment [1] (Well no.=1504), the remaining activity at 1.25 µM is 94.9%. In addition, the remaining activity at 3.75 µM in experiment [2] (Well no.=1504) stood at 97.3%.

For the molecule `Cc1cccc(C2CN(C)CCc3c2cc(O)c(O)c3Cl)c1` (stereo not shown) [SKF 83959 hydrobromide], the remaining activity at 1.25 µM in experiment [1] (Well no.=1264) came out at 106%. For the same molecule, in experiment [2] (Well no.=1264), the remaining activity at 3.75 µM worked out at 108%.

In the case of `CN1CCc2cccc(Cl)c2CC1` [SKF 86466], in experiment [1] (Well no.=1214), the remaining activity at 1.25 µM was 101%. For the same molecule, in experiment [2] (Well no.=1214), the remaining activity at 3.75 µM turned out to be 97.9%.

For `CN1Cc2sccc2C(c2ccc(O)c(O)c2)C1` (stereo not shown) [SKF 89145 hydrobromide], in experiment [1] (Well no.=1218), the remaining activity at 1.25 µM was determined as 92.6%. Besides, the remaining activity at 3.75 µM in experiment [2] (Well no.=1218) amounted to 98.3%.

As for `Oc1ccc(C2CNCc3sccc32)cc1O` (stereo not shown) [SKF 89626], the remaining activity at 1.25 µM in experiment [1] (Well no.=1456) is 98.5%. Moreover, in experiment [2] (Well no.=1456), the remaining activity at 3.75 µM was found to be 99.7%.

Consider `O=C(O)C1CCCN(CCC=C(c2ccccc2)c2ccccc2)C1` (stereo not shown) [SKF 89976A hydrochloride], for which the remaining activity at 1.25 µM in experiment [1] (Well no.=1323) was determined as 99.7%. Further, the remaining activity at 3.75 µM in experiment [2] (Well no.=1323) was found to be 102%.

For `CN(C)CCCCSC(=N)N` [SKF 91488 dihydrochloride], the remaining activity at 1.25 µM in experiment [1] (Well no.=1421) came to 100%. Moreover, in experiment [2] (Well no.=1421), the remaining activity at 3.75 µM was 98.7%.

Regarding `COc1ccc(CCCOC(Cn2ccnc2)c2ccc(OC)cc2)cc1` (stereo not shown) [SKF 96365], the remaining activity at 1.25 µM in experiment [1] (Well no.=1412) was 98.9%. Further, in experiment [2] (Well no.=1412), the remaining activity at 3.75 µM was found to be 100%.

As to `CP(=O)(O)CCCN` [SKF 97541 hydrochloride], the remaining activity at 1.25 µM in experiment [1] (Well no.=66) was 97.4%. Also, the remaining activity at 3.75 µM in experiment [2] (Well no.=66) came out at 98.7%.

As to `CCCC(C(=O)OCCN(CC)CC)(c1ccccc1)c1ccccc1` [SKF-525A hydrochloride], the remaining activity at 1.25 µM in experiment [1] (Well no.=902) came to 105%. The remaining activity at 3.75 µM in experiment [2] (Well no.=902) came out at 101%.

Consider `C=CCN1CCc2c(cc(O)c(O)c2Cl)C(c2ccccc2)C1` (stereo not shown) [SKF-82958 (hydrobromide)], for which, in experiment [1] (Well no.=7905), the remaining activity at 1.25 µM was 105%. Further, the remaining activity at 3.75 µM in experiment [2] (Well no.=7905) was determined as 101%.

Regarding `Fc1ccc(-c2nc3n(c2-c2ccncc2)CCS3)cc1` [SKF-86002], the remaining activity at 1.25 µM in experiment [1] (Well no.=2652) is 96.2%. The remaining activity at 3.75 µM in experiment [2] (Well no.=2652) amounted to 97.9%.

`COc1cc2ncnc(Sc3nnc(C)s3)c2cc1OC` [SKLB1002]: the remaining activity at 1.25 µM in experiment [1] (Well no.=5943) was 102%. Besides, in experiment [2] (Well no.=5943), the remaining activity at 3.75 µM was 102%.

As to `CN[C@@H](C)C(=O)N[C@H]1CCCC[C@H]2CC[C@@H](C(=O)N[C@@H](c3ccccc3)c3cn(CCCCc4ccc(CCCCn5cc([C@@H](NC(=O)[C@@H]6CC[C@@H]7CCCC[C@H](NC(=O)[C@H](C)NC)C(=O)N76)c6ccccc6)nn5)cc4)nn3)N2C1=O` [SM-164 Hydrochloride], the remaining activity at 1.25 µM in experiment [1] (Well no.=7030) is 105%; in experiment [1] (Well no.=8556) it was 104%. The values for the remaining activity at 3.75 µM in experiment [2] (Well no.=7030) and in experiment [2] (Well no.=8556) were 102% and 99.5%, respectively.

On to `O=C(Nc1ncc([N+](=O)[O-])s1)c1ccc([N+](=O)[O-])c(Cl)c1` [SM-7368], for which the remaining activity at 1.25 µM in experiment [1] (Well no.=5947) worked out at 104%. For the same molecule, the remaining activity at 3.75 µM in experiment [2] (Well no.=5947) was found to be 103%.

On to `COc1cc2cc(c1Cl)N(C)C(=O)C[C@H](OC(=O)[C@H](C)N(C)C(=O)CCSC1CC(=O)N(CC3CCC(C(=O)ON4C(=O)CCC4=O)CC3)C1=O)[C@]1(C)O[C@H]1[C@H](C)[C@@H]1C[C@@](O)(NC(=O)O1)[C@H](OC)/C=C/C=C(\C)C2` (stereo partly shown) [SMCC-DM1], for which the remaining activity at 1.25 µM in experiment [1] (Well no.=8216) was 100%. Further, the remaining activity at 3.75 µM in experiment [2] (Well no.=8216) turned out to be 96.4%.

Turning to `O=C1NC(=O)/C(=C/c2cccc(C(F)(F)F)c2)S1` [SMI-4a], in experiment [1] (Well no.=4788), the remaining activity at 1.25 µM was 104%. The remaining activity at 3.75 µM in experiment [2] (Well no.=4788) worked out at 101%.

Turning to `CCCCc1ccc(NC(C)=O)c(C)c1` [SMIP004], the remaining activity at 1.25 µM in experiment [1] (Well no.=6972) turned out to be 101%. For the same molecule, the remaining activity at 3.75 µM in experiment [2] (Well no.=6972) is 98.7%.

Regarding `C=CCN1C[C@H](C)N([C@H](c2ccc(C(=O)N(CC)CC)cc2)c2cccc(OC)c2)C[C@H]1C` [SNC80], the remaining activity at 1.25 µM in experiment [1] (Well no.=1216) amounted to 99.3%. Besides, the remaining activity at 3.75 µM in experiment [2] (Well no.=1216) came out at 102%.

Turning to `CC(C)(C)c1cnc(CSc2cnc(NC(=O)C3CCNCC3)s2)o1` [SNS-032], the remaining activity at 1.25 µM in experiment [1] (Well no.=2845) worked out at 105%. In experiment [2] (Well no.=2845), the remaining activity at 3.75 µM was determined as 104%.

Take `O=C(Nc1cccc(Cl)c1)Nc1ncc(CCNc2ncnc3ccsc23)s1` [SNS-314]: in experiment [1] (Well no.=2893), the remaining activity at 1.25 µM turned out to be 101%. Moreover, the remaining activity at 3.75 µM in experiment [2] (Well no.=2893) was 101%.

Regarding `CC1(C)CC(=O)c2c(C(F)(F)F)nn(-c3ccc(C(N)=O)c(N[C@H]4CC[C@H](O)CC4)c3)c2C1` [SNX-2112], the remaining activity at 1.25 µM in experiment [1] (Well no.=4635) was 99.3%. Further, the remaining activity at 3.75 µM in experiment [2] (Well no.=4635) is 95.7%.

As for `Oc1c2ccccc2c2c3c(cccc13)N=N2` [SP 600125 - Anthra[1-9-cd]pyrazol-6(2H)-one], the remaining activity at 1.25 µM in experiment [1] (Well no.=2432) is 96.1%. For the same molecule, in experiment [2] (Well no.=2432), the remaining activity at 3.75 µM was determined as 105%.

With `COc1cc2cc(c1Cl)N(C)C(=O)C[C@H](OC(=O)[C@H](C)N(C)C(=O)CCC(C)(C)SSCCCC(=O)ON1C(=O)CCC1=O)[C@]1(C)O[C@H]1[C@H](C)[C@@H]1C[C@@](O)(NC(=O)O1)[C@H](OC)/C=C\C=C(\C)C2` [SPDB-DM4], the remaining activity at 1.25 µM in experiment [1] (Well no.=7700) came to 106%. In experiment [2] (Well no.=7700), the remaining activity at 3.75 µM amounted to 106%.

With `Nc1ncnc2c1ncn2C1CCCO1` (stereo not shown) [SQ22536], the results for the remaining activity at 1.25 µM in experiment [1] (Well no.=6236) and in experiment [1] (Well no.=7958) were 103% and 92.2%, respectively. In addition, the results for the remaining activity at 3.75 µM in experiment [2] (Well no.=6236) and in experiment [2] (Well no.=7958) were 104% and 93.7%, respectively.

In the case of `Nc1ncnc2c1ncn2C1CCCO1` (stereo not shown) [SQ 22536], the remaining activity at 1.25 µM in experiment [1] (Well no.=1517) was found to be 98.3%. In addition, the remaining activity at 3.75 µM in experiment [2] (Well no.=1517) came to 99.9%.

On to `O=C(O)CCC/C=C\C[C@@H]1[C@H](CNNC(=O)Nc2ccccc2)[C@H]2CC[C@@H]1O2` [SQ-29548], for which the remaining activity at 1.25 µM in experiment [1] (Well no.=4526) worked out at 92.8%. Also, the remaining activity at 3.75 µM in experiment [2] (Well no.=4526) turned out to be 94.8%.

With `O=C(Nc1ccc(C(O)(C(F)(F)F)C(F)(F)F)cc1)c1ccccc1Cl` [SR0987], the remaining activity at 1.25 µM in experiment [1] (Well no.=8133) was 95.1%. Further, in experiment [2] (Well no.=8133), the remaining activity at 3.75 µM is 99.6%.

`CC(=O)Nc1nc(C)c(S(=O)(=O)Nc2ccc(C(O)(C(F)(F)F)C(F)(F)F)cc2)s1` [SR1001]: in experiment [1] (Well no.=8467), the remaining activity at 1.25 µM is 106%. The remaining activity at 3.75 µM was 111% in experiment [2] (Well no.=5461) and 106% in experiment [2] (Well no.=8467).

The values above are taken from paper PMC8286840, “Identifying SARS-CoV-2 antiviral compounds by screening for small molecule inhibitors of Nsp3 papain-like protease” (Biochemical Journal, 2021).
